Source: patent US6469055B2, “Compositions and methods for treatment of neurological disorders and neurodegenerative diseases” (Massachusetts Institute of Technology, priority 1996, dated 2002)
Entries after “also recorded” stand apart in the source; their conditions may differ. Counter-ions that a name gives are not always drawn.

Key:
secreted APP (APPs) = experiment: APPs secretion into the media of cultured cortical astrocytes, Western blot; type: cell-based, rat; conditions: for APPs secretion relative to untreated cells: PMA 5 μM or DNF 100 μM, 1 hour, mAb22C11; for APPs secretion, to that of untreated cells: PMA 5 μM, dexnorfenfluramine 100 μM
Description: Astrocytes are isolated from cortices from postnatal rats. […] Media are changed twice weekly.
To detect secreted APP, culture media was collected after drug treatments and phenylmethylsulfonyl fluoride was added to a final concentration of 2 mM. The media samples were then applied to Sephadex PD-10 desalting columns (Pharmacia) and eluted with distilled water. Column eluates were frozen and dried by vacuum centrifugation. The lyophilized proteins were reconstituted in 25 μL water followed by 25 μL of 2X Laemmli gel loading buffer, and boiled for 5 min.
(§1) Assays of PI hydrolysis are conducted as previously reported. Also, measurements of APPs are conducted as previously reported.

APP holoprotein [1] = experiment: Cell-associated APP (APP holoprotein), Western blot, cultured cortical astrocytes; conditions: for effect on cell-associated APP (APP holoprotein): PMA 5 μM or DNF 100 μM; for effect on basal APP holoprotein: p>0.05; for levels of cellular and amyloidogenic APP holoprotein: aspirin or resveratrol, nano- or micromolar range, cultured astrocytes or neurons
Description: Astrocytes are isolated from cortices from postnatal rats. […] In brief, dissected cortices were dissociated by trypsinization and trituration through a flame-polished Pasteur pipette. Cells were plated onto poly-L-lysine coated 35- or 100 mm culture dishes at densities of about 10-25 cells/mm^2. […] Media are changed twice weekly. […] Pharmacological manipulations are performed in serum-free media on 7-14 DIV confluent astrocytes.
To detect cell-associated protein (APP or GFAP), astrocytes from 35 mm dishes are scraped in lysis buffer (60 mM Tris/HCl, 4% SDS, 20% glycerol, 1 mM dithiothreitol), ultrasonicated and boiled for 5 min. The total amount of cell protein per dish, estimated using the bicinchoninic acid assay, is not altered by pharmacological treatments. Bromphenol blue (0.1%) is added to each sample and equal amounts of protein (˜75 mg/lane) are loaded on 10% SDS-polyacrylamide gels.
(§2) The amount of media or cell protein loaded for sodium dodecyl sulfate-polyacrylamide gel electrophoresis (10-20% SDS PAGE; Bio-Rad) was normalized for the amount of protein per sample. […] After 2×10 min rinses in TBST, the membranes were incubated in TBST containing an appropriate antibody. Monoclonal antibodies 22C11 and GFAP (both from Boehringer-Mannheim) were used to detect the N-terminus of APP and glial fibrillary acidic protein respectively; antisera R37 and R98 (gifts of Dr. F. Kametani, Tokyo Institute of Psychiatry) were used to detected the C-terminus and KPI motifs of APP respectively; antiserum C8 (gift of Dr. D. Selkoe, Women's Hospital, Harvard Medical School, Cambridge, Mass.) was used to detect the C-terminus of APP.
After an overnight incubation, membranes were rinsed in TBST before being treated for 1h with a peroxidase-linked secondary antibody. After several rinses in TBST, protein bands were visualized on Kodak X-AR films by an enhanced chemiluminescence method (Amersham). Optical densities of the protein bands were quantitated by laser scanning densitometry (LKB, Bromma, Sweden), and normalized to the densities of those bands generated under control conditions.

PI hydrolysis = PI hydrolysis in cultured astrocytes; type: cell-based, rat
Description: as §1

APP mRNA = experiment: APP mRNA, Northern blot, cultured cortical astrocytes; conditions: for effect on the increase in APP mRNA stimulated by PG E2: EGTA or KN-93 100 μM, PG E2 10 μM; for APP mRNA levels versus untreated cells / APP mRNA, of untreated cells: isoproterenol 50 μM; for APP mRNA levels versus untreated cells: Northern blot
Description: Pharmacological manipulations are performed in serum-free media on 7-14 DIV confluent astrocytes.
Total RNA from astrocytes grown on 100 mm dishes is extracted by the acid guanidium thiocyanate-phenol-chloroform method. […] In brief, the medium was aspirated and the cells were scraped in 1 mL of TRI Reagent. After incubation for 15 min at room temperature, 0.2 ml chloroform was added, mixed vigorously with TRI Reagent and the mixture was stored for another 15 min at room temperature. After centrifugation at 12,000 g for 15 min, 0.5 ml isopropanol was added to the aqueous phase of the mixture to precipitate RNA. The RNA pellet collected by centrifugation (12,000 g, 15 min at 4° C.) was washed with 70% ethanol. once and solubilized in an appropriate amount of Formazol (Molecular Research Center, Cincinnati, Ohio). […] RNA was blotted onto Hybond polyvinyl membranes by overnight capillary transfer and fixed onto the membranes by UV light illumination. […] Membranes were dried and exposed to Kodak X-ray film for 24-48 h with an Amersham enhancer sheet. The relative amounts of mRNA obtained by hybridization were estimated using densitometric analysis of autoradiographs. The levels of APP mRNA were normalized to the amounts of G3PDH mRNA and expressed as a ratio to the levels of untreated, control cells.

cellular cAMP levels = experiment: cAMP assay in cultured astrocytes; type: cell-based, rat; conditions: for effect on cellular cAMP levels stimulated by PG E2: EGTA or KN-93, PG E2 10 μM
Description: In brief, after aspirating the medium and rinsing twice with 1 ml ice cold PBS, the cells were scraped in 0.8 ml ice cold ethanol and sonicated. […] After resuspension in 120 μl Tris/EDTA buffer, two duplicate samples of 50 μl each were mixed with the binding protein, [8-^3H] adenosine 3′, 5′-cyclic phosphate tracer and incubated at 2-4° C. for 2 h. A charcoal suspension (100 μl) was added to the samples before centrifugation and 200 μl of the supernatant were removed for. scintillation counting. The amount of cyclic AMP (pmol/mg protein) was estimated by comparing to known standards, and normalized to the amounts of whole cell protein as determined by the bicinchoninic acid assay (Sigma).

APP synthesis = APP synthesis (APP mRNA and holoprotein) in cultured cortical astrocytes; type: cell-based, rat
[2] = test system: glial fibrillary acidic protein (GFAP); experiment: GFAP protein in cultured astrocytes, Western blot; type: cell-based, rat
Description: To detect cell-associated protein (APP or GFAP), astrocytes from 35 mm dishes are scraped in lysis buffer (60 mM Tris/HCl, 4% SDS, 20% glycerol, 1 mM dithiothreitol), ultrasonicated and boiled for 5 min. […] Bromphenol blue (0.1%) is added to each sample and equal amounts of protein (˜75 mg/lane) are loaded on 10% SDS-polyacrylamide gels.
as §2
After an overnight incubation, membranes were rinsed in TBST before being treated for 1h with a peroxidase-linked secondary antibody. After several rinses in TBST, protein bands were visualized on Kodak X-AR films by an enhanced chemiluminescence method (Amersham). […]

astrocytes = experiment: Process formation of cultured astrocytes; type: cell-based, rat
APP holoprotein [3] = experiment: Brain APP holoprotein in rats injected with p-chloroamphetamine (PCA) with or without aspirin; type: in vivo, rat; conditions: for brain APP holoprotein relative to control levels: rats, injections of aspirin alone
Excerpt: Neuronal injury can stimulate prostaglandin production., and thereby stimulate APP overexpression. We injected rats with para-chloroamphetamine (PCA), a neurotoxin which causes a loss of serotoninergic terminals in the brain.

[4] = DFU or DFP 10^-9-10^-3 M, 1 h, cultured astrocytes
[5] = PMA 5 μM or dexnorfenfluramine 100 μM
[6] = EGTA or KN-93 100 μM, PG E2 10 μM, 24 h
[7] = aspirin or resveratrol, 1 h, nano- or micromolar range, cultured astrocytes or neurons
[8] = propranolol 50 μM with NE 50 μM

CC1(C)OC(=O)C(c2cccc(F)c2)=C1c1ccc(S(C)(=O)=O)cc1 [DFU, 5,5-dimethyl-3-(3-fluorophenyl)-4-(4-methylsulphonyl)phenyl-2(5H)-furanone]
secretion of soluble APPs (secreted APP (APPs); [4]): increases; also recorded: promotes
levels of cellular APP holoprotein (APP holoprotein [1]; [4]): decreases

C[C@H](N)Cc1cccc(C(F)(F)F)c1 [DNF, dexnorfenfluramine hydrochloride]
APPs secretion relative to untreated cells (secreted APP (APPs)): significantly increases
APPs secretion, to that of untreated cells (secreted APP (APPs)): ~2.2 fold
PI hydrolysis relative to untreated astrocytes (PI hydrolysis; dexnorfenfluramine 100 μM, p<0.05): ~2.6 fold
effect on APP mRNA (APP mRNA; [5]): does not increase
effect on cell-associated APP (APP holoprotein) (APP holoprotein [1]; 24 h, hydrochloride): no effect
effect on cell-associated APP (APP holoprotein) (APP holoprotein [1]; 24 h, listed as dexnorfenfluramine, hydrochloride): does not increase

O=C(O)CN(CCOCCOCCN(CC(=O)O)CC(=O)O)CC(=O)O [EGTA]
effect on basal cAMP levels (cellular cAMP levels; EGTA or KN-93 100 μM alone): no significant effect
effect on cellular cAMP levels stimulated by PG E2 (cellular cAMP levels): Neither EGTA nor KN-93 had a significant effect
effect on the increase in APP mRNA stimulated by PG E2 (APP mRNA; 24 h): significantly inhibited
effect on basal APP holoprotein (APP holoprotein [1]; EGTA or KN-93 100 μM alone): no significant effect
effect on the increase in APP holoprotein stimulated by PG E2 (APP holoprotein [1]; [6]): significantly inhibited

C=CC[C@@H]1/C=C(\C)C[C@H](C)C[C@H](OC)[C@H]2O[C@@](O)(C(=O)C(=O)N3CCCC[C@H]3C(=O)O[C@H](/C(C)=C/[C@@H]3CC[C@@H](O)[C@H](OC)C3)[C@H](C)[C@@H](O)CC1=O)[C@H](C)C[C@@H]2OC [FK-506]
effect on basal cAMP levels (cellular cAMP levels; cyclosporin A or FK-506 (50 μM) alone): no significant effect
effect on basal APP holoprotein (APP holoprotein [1]; cyclosporin A or FK-506 50 μM alone): no significant effect

NCCNS(=O)(=O)c1cccc2cnccc12 [H9]
effect on APP synthesis (APP synthesis): decrease or inhibit

Cl.Cl.O=S(=O)(NCCNC/C=C/c1ccc(Br)cc1)c1cccc2cnccc12 [H-89, H-89 dihydrochloride]
effect on PG E2-stimulated APP mRNA production (APP mRNA; H-89 dihydrochloride): blocked
effect on the increase in APP holoprotein stimulated by PG E2 (APP holoprotein [1]; H-89 100 μM, PG E2 10 μM, 24 h): completely abolished

COc1ccc(S(=O)(=O)N(CCO)c2ccccc2CN(C)CC=Cc2ccc(Cl)cc2)cc1.O=P(O)(O)O [KN-93, N-[2-[[[3-(4′-chlorophenyl)-2-propenyl]methylamino]methyl]phenyl]-N-(2-hydroxyethyl)-4′-methoxy-benzenesulfonamide phosphate]
effect on basal cAMP levels (cellular cAMP levels; EGTA or KN-93 100 μM alone): no significant effect
effect on cellular cAMP levels stimulated by PG E2 (cellular cAMP levels): Neither EGTA nor KN-93 had a significant effect
effect on the increase in APP mRNA stimulated by PG E2 (APP mRNA; 24 h): significantly inhibited
effect on basal APP holoprotein (APP holoprotein [1]; EGTA or KN-93 100 μM alone): no significant effect
effect on the increase in APP holoprotein stimulated by PG E2 (APP holoprotein [1]; [6]): significantly inhibited

NC[C@H](O)c1ccc(O)c(O)c1 [NE, norepinephrine]
cAMP formation (cellular cAMP levels; NE 50 μM, 1 h): significantly increased
PI hydrolysis (PI hydrolysis; NE 50 μM, 1 h): significantly increased
glial fibrillary acidic protein immunoreactivity ([2]; 8Br-cAMP or NE): increase
process formation in astrocytes (astrocytes): increase
APP mRNA levels versus untreated cells (APP mRNA; 24 h, NE 50 or 100 μM): about 1.7 fold
APP mRNA level versus NE concentration (APP mRNA; NE 50-400 μM): do not increase linearly
APP mRNA, of untreated cells (APP mRNA; NE 50 or 100 μM): 180%
APP holoprotein in cell lysates, of that seen in untreated cells (APP holoprotein [1]; 8Br-cAMP or NE, antibodies 22C11 and R37): 200%
amount of cell-associated APP holoprotein relative to untreated cells (APP holoprotein [1]; NE 50 μM, about 24 h, Western blot): ~1.7 fold
cell-associated APP relative to untreated control cells (APP holoprotein [1]; NE 50 μM, mAb22C11, p<0.05): significantly more
APP holoprotein level versus NE concentration (APP holoprotein [1]; NE 50-400 μM): do not increase linearly

CCCCC[C@H](O)/C=C/[C@H]1[C@H](O)CC(=O)[C@@H]1C/C=C\CCCC(=O)O [PG E2, prostaglandin E2]
APP secreted in the media (secreted APP (APPs); PG E2 1, 10 or 100 μM, 24 h, mAb 22C11, R37 or C8): increased
APP holoprotein (~130 kD) in the media (secreted APP (APPs); PG E2, 24 h, antisera C8): increased amounts
cellular cAMP levels compared to untreated cells (cellular cAMP levels; 1 μg PG E2 (so in the source)): 27 fold
cellular cAMP levels compared to untreated cells (cellular cAMP levels; 10 μg PG E2 (so in the source)): 106 fold
cellular cAMP levels compared to untreated cells (cellular cAMP levels; 100 μg PG E2 (so in the source)): 227 fold
cAMP production (cellular cAMP levels; PG E2 0.1 μM): did not stimulate
cAMP versus PG E2 concentration (cellular cAMP levels; PG E2 1, 10 or 100 μM): Concentration-dependent elevations
levels of GFAP ([2]; PG E2 treatment): increased
effect on APP synthesis, shorter treatment (APP synthesis; PG E2 10 μM, 6 or 12 h): did not reliably increase
process formation in astrocytes (astrocytes): induced
effect on APP mRNA (APP mRNA; PG E2 0.1 μM): did not significantly alter; also recorded: not 0.1 μM PG E2
astrocytic APP mRNA relative to untreated cells (APP mRNA; PG E2 1, 10 or 100 μM, 24 h): significantly increased; also recorded: stimulated increases
effect on APP holoprotein (APP holoprotein [1]; PG E2 0.1 μM): did not significantly alter; also recorded: not 0.1 μM PG E2
cellular APP holoprotein, of untreated control cells (APP holoprotein [1]; PG E2 1 μM, 24 h): 1.4 fold
cellular APP holoprotein, of untreated control cells (APP holoprotein [1]; PG E2 10 μM, 24 h): 1.9 fold
cellular APP holoprotein, of untreated control cells (APP holoprotein [1]; PG E2 100 μM, 24 h): 2.3 fold
effect on APP holoprotein (APP holoprotein [1]; PG E2 1, 10 or 100 μM, 24 h): stimulated increases
KPI-containing APP isoforms (APP holoprotein [1]; PG E2 treatment, antiserum R98): increases

CCCCCCCCCCCCCC(=O)O[C@@H]1[C@@H](C)[C@@]2(O)[C@@H](C=C(CO)C[C@]3(O)C(=O)C(C)=C[C@@H]23)[C@@H]2C(C)(C)[C@]12OC(C)=O [PMA, phorbol 12-myristate 13-acetate]
APPs secretion relative to untreated cells (secreted APP (APPs)): significantly increases
APPs secretion, to that of untreated cells (secreted APP (APPs)): ~3.0 fold
effect on APP mRNA (APP mRNA; [5]): does not increase
effect on cell-associated APP (APP holoprotein) (APP holoprotein [1]; 24 h): no effect
effect on cell-associated APP (APP holoprotein) (APP holoprotein [1]; 24 h, listed as phorbol 12-myristate 13-acetate): does not increase

CCN(CC)CC.Nc1ncnc2c1ncn2[C@@H]1O[C@@H]2COP(O)(=S)O[C@H]2[C@H]1O (stereo partly shown) [Sp-cAMP triethylamine]
cellular APP holoprotein compared to untreated cells (APP holoprotein [1]; Sp-cAMP triethylamine 50 μM, 24 h, antiserum R98): 1.6 fold
cellular APP holoprotein compared to untreated cells (APP holoprotein [1]; Sp-cAMP triethylamine 100 μM, 24 h, antiserum R98): 1.9 fold
cellular APP holoprotein compared to untreated cells (APP holoprotein [1]; Sp-cAMP triethylamine 150 μM, 24 h, antiserum R98): 2.2 fold
effect on astrocytic APP holoprotein (APP holoprotein [1]; Sp-cAMP triethylamine in the absence of PG E2): sufficient to stimulate increases

Cc1c(C(=O)c2cccc3ccccc23)c2cccc3c2n1[C@H](CN1CCOCC1)CO3 [Win55212]
effect on APP synthesis (APP synthesis): decrease or inhibit

CC(=O)Oc1ccccc1C(=O)O [aspirin]
secretion of soluble APPs (secreted APP (APPs); [7]): increase
secretion of soluble APPs (secreted APP (APPs); aspirin or resveratrol, 1 h, nano- or micromolar range, cultured astrocytes or neurons, listed as Aspirin): promotes
APP holoprotein levels versus uninjected control rats / effect on the PCA-induced increase (APP holoprotein [3]; rats injected with both aspirin and PCA): did not differ; also recorded: attenuated
brain APP holoprotein relative to control levels (APP holoprotein [3]): significant decrease
brain APP holoprotein relative to control levels (APP holoprotein [3]; listed as Aspirin): small, but significant decrease
levels of cellular and amyloidogenic APP holoprotein (APP holoprotein [1]; 1 h): decreased levels
levels of cellular and amyloidogenic APP holoprotein (APP holoprotein [1]; 1 h, listed as Aspirin): decreases

CC(C)NCC(O)c1ccc(O)c(O)c1 (stereo not shown) [isoproterenol]
APP mRNA levels versus untreated cells (APP mRNA; 24 h, NE 50 or 100 μM): about 1.6 fold
APP mRNA, of untreated cells (APP mRNA; NE 50 or 100 μM): 180%
effect on APP mRNA levels above controls (APP mRNA; about 24 h, NE 50 or 100 μM, Iso 50 μM, 8Br-cAMP […] μM): mimicked

CN1CCCC1c1cccnc1.O=C(O)C(O)C(O)C(=O)O.O=C(O)C(O)C(O)C(=O)O (stereo not shown) [nicotine ditartrate]
APP secreted in the media (secreted APP (APPs); nicotine ditartrate 1, 10 or 100 μM, 1 h): decreased
astrocytic APP holoprotein relative to untreated cells (APP holoprotein [1]; nicotine ditartrate 1, 10 or 100 μM, 24 h, p<0.05): significantly increased

CC(C)NCC(O)COc1cccc2ccccc12 (stereo not shown) [propranolol]
effect on the NE-induced increase in cAMP formation (cellular cAMP levels; [8]): inhibits
effect on the NE-induced increase in PI hydrolysis (PI hydrolysis; [8]): no effect
effect on APP synthesis (APP synthesis): decrease or inhibit
effect on the NE- or isoproterenol-stimulated increase in APP mRNA (APP mRNA; propranolol 50 μM): to baseline levels; also recorded: significantly inhibited; also recorded: abolished
effect on basal APP protein levels (APP holoprotein [1]; propranolol 50 μM on its own): no significant effect
effect on the NE-stimulated increase in APP holoprotein (APP holoprotein [1]; [8]): inhibited

Oc1ccc(C=Cc2cc(O)cc(O)c2)cc1 [resveratrol]
secretion of soluble APPs (secreted APP (APPs); [7]): increase; also recorded: promotes
levels of cellular and amyloidogenic APP holoprotein (APP holoprotein [1]; 1 h): decreased levels; also recorded: decreases
